Assay: Visual solubility in organic solvent on successive addition of water
Assay type: physicochemical
Settings: 1 mg/100 μl in THF, ACN, acetone, DMSO, DMF, methanol, ethanol; 10 μl water added successively until precipitation
Description: If the active compound is insoluble in an organic solvent, this solvent is less suitable for the production of nanoparticles. If a clear solution is formed, in each case equal defined amounts of aqueous solvent are added stepwise and mixed in each case until precipitation of the active compound is visible after addition and mixing (visual solubility). The assessment of visual solubility is carried out visually in a suitable container, preferably in a glass tube having a small diameter, for example as are customary in gas chromatography (diameter of 0.5 cm, height 3 cm), under cold light, which preferably radiates upward, against a dark surface, preferably against a black surface, as background. A diagrammatic representation of the procedure is depicted in FIG. 1.
For loading experiments, the active compounds dexamethasone and 5-[2-(2-fluorophenyl)-1,8-naphthyridin-4-yl]-2,6-naphthyridin-1-ylamine (also called active compound B below) were used. For solvent selection, the active compounds were each dissolved in the following solvents with a concentration of 1 mg/100 μl: tetrahydrofuran (THF), acetonitrile (ACN), acetone, dimethyl sulfoxide (DMSO), dimethylformamide (DMF), methanol, ethanol. Additionally, 0.1% of trifluoroacetic acid (v/v) were added to each organic solution of active compound B in order to establish an apparent “pH”. […]

SMILES: C[C@@H]1C[C@H]2[C@@H]3CCC4=CC(=O)C=C[C@]4(C)[C@@]3(F)[C@@H](O)C[C@]2(C)[C@@]1(O)C(=O)CO [dexamethasone]
- visual solubility: increased visual solubility in tetrahydrofuran
